Test results reported in patent US12630498B2 (Genzyme Corporation, priority 2019, dated 2026).

Key:
[1] = target: T1, human Cystic Fibrosis Transmembrane Conductance Regulator (CFTR) harboring the ΔF508 mutation (Homo sapiens, UniProt P13569, DEL508-508); assay: H441 cell ΔF508-CFTR-HRP cell surface assay (Emax and EC50); format: cell-based; conditions: for Emax: NCI-H441, NA = Not active
T1 construct: expressed in transfected cells; host or cells: H441 carcinoma line (G418-selected)
Procedure, shortened: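 H441 and 41o- bronchial epithelial cells expressing ΔF508-CFTR with an extracellular-loop-4 HRP tag were treated with a 15-point compound series (24.5–0.001 μM) for two nights, H441 at 27° C, 41o- at 37° C with 0.0005 mg/ml doxycycline. Surface HRP luminescence read; % of maximum VX809 signal and EC50 derived.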

[2] = target: T2, CFTR-mediated transepithelial chloride transport in primary human bronchial epithelial cells from a ΔF508 homozygous CF donor (Homo sapiens, UniProt P13569, DEL508-508); assay: TECC24 recording of CFTR-mediated transepithelial chloride transport in CF-HBE cells (AUC fold over DMSO); format: cell-based; conditions: test agent 10 μM, 48 hours incubation, AUC of forskolin-stimulated IEQ relative to DMSO
T2 construct: Primary human bronchial epithelial cells from a ΔF508 homozygous CF donor; host or cells: primary CF-HBE cells, ΔF508 homozygous donor
T2 sequence (P13569 with tags, fused parts or gaps DEL508-508): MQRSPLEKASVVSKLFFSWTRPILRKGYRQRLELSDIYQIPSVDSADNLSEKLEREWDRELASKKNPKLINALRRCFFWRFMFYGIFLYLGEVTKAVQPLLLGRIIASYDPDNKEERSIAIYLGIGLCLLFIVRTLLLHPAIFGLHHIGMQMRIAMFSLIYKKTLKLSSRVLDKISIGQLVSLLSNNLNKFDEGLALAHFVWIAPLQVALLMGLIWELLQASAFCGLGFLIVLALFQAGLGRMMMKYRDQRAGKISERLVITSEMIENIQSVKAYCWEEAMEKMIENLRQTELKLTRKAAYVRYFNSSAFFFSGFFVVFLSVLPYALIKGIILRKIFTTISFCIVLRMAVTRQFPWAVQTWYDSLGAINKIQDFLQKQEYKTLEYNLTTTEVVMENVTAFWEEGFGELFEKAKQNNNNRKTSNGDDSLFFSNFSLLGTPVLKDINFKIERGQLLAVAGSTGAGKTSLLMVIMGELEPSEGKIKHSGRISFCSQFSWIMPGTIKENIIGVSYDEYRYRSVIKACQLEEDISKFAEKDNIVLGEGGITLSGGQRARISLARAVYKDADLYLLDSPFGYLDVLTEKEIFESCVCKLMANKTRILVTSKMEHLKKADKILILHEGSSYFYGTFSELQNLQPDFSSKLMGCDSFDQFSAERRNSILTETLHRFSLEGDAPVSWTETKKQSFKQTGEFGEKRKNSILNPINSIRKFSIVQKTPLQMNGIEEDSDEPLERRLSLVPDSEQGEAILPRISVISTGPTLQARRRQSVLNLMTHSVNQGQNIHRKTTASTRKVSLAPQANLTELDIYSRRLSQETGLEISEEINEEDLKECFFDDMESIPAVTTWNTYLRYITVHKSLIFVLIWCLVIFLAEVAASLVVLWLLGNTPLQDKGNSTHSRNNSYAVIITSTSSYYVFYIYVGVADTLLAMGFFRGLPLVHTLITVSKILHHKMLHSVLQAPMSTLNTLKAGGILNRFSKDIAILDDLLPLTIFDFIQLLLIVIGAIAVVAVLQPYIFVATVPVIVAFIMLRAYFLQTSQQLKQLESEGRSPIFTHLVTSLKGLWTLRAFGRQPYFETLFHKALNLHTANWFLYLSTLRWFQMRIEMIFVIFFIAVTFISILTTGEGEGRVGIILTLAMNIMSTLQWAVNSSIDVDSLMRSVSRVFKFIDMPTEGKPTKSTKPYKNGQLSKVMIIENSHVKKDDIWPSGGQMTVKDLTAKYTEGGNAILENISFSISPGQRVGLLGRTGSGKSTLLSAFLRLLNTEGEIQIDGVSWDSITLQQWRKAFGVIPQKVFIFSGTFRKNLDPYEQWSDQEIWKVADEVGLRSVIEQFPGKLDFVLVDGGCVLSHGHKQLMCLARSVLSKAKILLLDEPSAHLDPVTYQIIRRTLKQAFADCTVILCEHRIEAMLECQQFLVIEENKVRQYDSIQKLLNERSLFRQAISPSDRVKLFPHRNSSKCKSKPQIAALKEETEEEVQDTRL
Description: Example 316: TECC24 AUC Fold Over DMSO @ 10 uM
The effects of a test agent on CFTR-mediated transepithelial chloride transport was measured using TECC24 recording analysis. Test agents were solubilized in DMSO. Solubilized test agents were mixed with incubation medium containing DMEM/F12, Ultroser G (2%; Crescent Chemical, catalog #67042), Hyclone Fetal Clone II (2%; GE Healthcare, catalog #SH30066.02), bovine brain extract (0.25%; Lonza, catalog #CC-4098), insulin (2.5 μg/mL), IL-13 (10 ng/mL), hydrocortisone (20 nM), transferrin (2.5 μg/mL), triiodothyronine (500 nM), ethanolamine (250 nM), epinephrine (1.5 μM), phosphoethanolamine (250 nM), and retinoic acid (10 nM). Primary human bronchial epithelial cells from a ΔF508 homozygous CF donor (CF-HBE cells; from University of North Carolina Cystic Fibrosis Tissue Procurement Center), grown on Transwell HTS 24-well cell culture inserts (Costar, catalog #3378), were exposed to test agents or controls dissolved in incubation medium. The CF-HBE cells were cultured at 36.5° C. for 48 hours before TECC24 recordings were performed in the presence or absence of test agent, a positive control or vehicle (DMSO).
Following incubation, the transwell cell culture inserts containing the test agent or control-treated CF-HBE cells were loaded onto a TECC24 apparatus (TECC v7 or MTECC v2; EP Design) to record the transepithelial voltage (VT) and resistance (TEER) using 4 AgCl electrodes per well configured in current-clamp mode. The apical and basolateral bath solutions both contained (in mM) 140 NaCl, 5 KCl, 2 CaCl2), 1 MgCl2, 10 Hepes, and 10 glucose (adjusted to pH 7.4 with NaOH). To inhibit basal Na+ absorption, the ENaC inhibitor benzamil (10 μM) was added to the bath. Then, the adenylate cyclase activator, forskolin (10 μM), was added to the bath to activate CFTR. The forskolin-stimulated Cl-transport was halted by addition of CFTR inhibitor-172 (20 μM) to the bath at the end of the experiment to confirm specificity. VT and TEER recordings were digitally acquired at routine intervals using TECC or MTECC software (EP Design). VT and TEER were transformed into equivalent transepithelial Cl-current (IEQ), and the Area Under the Curve (AUC) of the IEQ time course between forskolin and CFTR inhibitor-172 addition was generated using Excel (Microsoft). Efficacy is expressed as the ratio of the test agent AUC divided by vehicle AUC. EC50s based on AUC are generated using the non-linear regression log(agonist) vs. response function in Prism software (GraphPad) with Hill Slope fixed=1.
If a test agent increased the AUC of the forskolin-stimulated IEQ relative to vehicle in CF-HBE cells, and this increase was inhibited by CFTR inhibitor-172, then the test agent was considered a CFTR corrector.

T1 sequence (P13569 with tags, fused parts or gaps DEL508-508): as above

SMILES	EC50 [1] [nM]	Emax [1] [%]	TECC24 AUC fold over DMSO @10 μM [2]
CC(C)(C)[C@H](NC(=O)c1ccc2ccccc2c1OC[C@H]1CC[C@@H](C(F)(F)F)CC1)C(=O)O [Example 26, (S)-3,3-dimethyl-2-(1-(((1s,4R)-4-(trifluoromethyl)cyclohexyl)methoxy)-2-naphthamido)butanoic Acid]	4600	98.8	C (“C” refers to AUC @10 uM <4)
CC(C)(C)[C@H](NC(=O)c1ccc2ccccc2c1OCc1ccc(S(=O)(=O)C(F)(F)F)cc1)C(=O)O [Example 57, (S)-3,3-dimethyl-2-(1-((4-((trifluoromethyl)sulfonyl)benzyl)oxy)-2-naphthamido)butanoic Acid]	1500	87.9	C (“C” refers to AUC @10 uM <4)
CC(C)(S[C@@H]1C[C@@H]2CC[C@H]1C2)[C@H](NC(=O)c1ccc2ccccc2c1OCc1ccc(C(F)(F)F)cc1)C(=O)O [Example 173, (R)-3-(((1S,2R,4R)-bicyclo[2.2.1]heptan-2-yl)thio)-3-methyl-2-(1-((4-(trifluoromethyl)benzyl)oxy)-2-naphthamido)butanoic Acid]	700	164	B (“B” refers to AUC @10 uM between 4-6)
CCC(C)(C)[C@@H](NC(=O)c1ccc2ccc(C)cc2c1OCc1ccc(OC(F)(F)F)cc1)C(=O)O [Example 312, (R)-3,3-dimethyl-2-(7-methyl-1-((4-(trifluoromethoxy)benzyl)oxy)-2-naphthamido)pentanoic Acid]	2200	127	B (“B” refers to AUC @10 uM between 4-6)
CC(C)(C)C[C@H](NC(=O)c1ccc2ccccc2c1OC[C@H]1CC[C@H](C(F)(F)F)CC1)C(=O)O [Example 179, (S)-4,4-dimethyl-2-(1-(((1r,4S)-4-(trifluoromethyl)cyclohexyl)methoxy)-2-naphthamido)pentanoic Acid]	3400	103	C (“C” refers to AUC @10 uM <4)
CC(C)(SC1CCCC1)[C@H](NC(=O)c1ccc2ccccc2c1OCC1CCCCC1)C(=O)O [Example 170, (R)-2-(1-(cyclohexylmethoxy)-2-naphthamido)-3-(cyclopentylthio)-3-methylbutanoic Acid]	5000	143	C (“C” refers to AUC @10 uM <4)
C[C@@H](OCc1ccccc1)C(NC(=O)c1ccc2ccccc2c1OCC1CCCCC1)C(=O)O (stereo partly drawn) [Example 150, (3R)-3-(benzyloxy)-2-(1-(cyclohexylmethoxy)-2-naphthamido)butanoic Acid]	10900	82.5	C (“C” refers to AUC @10 uM <4)
CC(C)(C)[C@@H](NC(=O)c1ccc2ccc(Cl)cc2c1OCc1ccc(C(F)(F)F)cc1)C(=O)O [Example 262, (2R)-2-[[7-chloro-1-[[4-(trifluoromethyl)phenyl]methoxy]naphthalene-2-carbonyl]amino]-3,3-dimethyl-butanoic Acid]	1100	132	A (“A” refers to AUC @10 uM >6)
CC(C)(C)[C@H](NC(=O)c1ccc2ccccc2c1OCc1ccc(C(F)(F)F)cc1)C(=O)O [Example 74]	800	216	A (“A” refers to AUC @10 uM >6)
CC(C)(C)C[C@H](NC(=O)c1ccc2ccccc2c1OCc1ccc(C(F)(F)F)cc1)C(=O)O [Example 141, (S)-4,4-dimethyl-2-(1-((4-(trifluoromethyl)benzyl)oxy)-2-naphthamido)pentanoic Acid]	2300	147	A (“A” refers to AUC @10 uM >6)
CC(C)(C)[C@@H](NC(=O)c1ccc2ccc(F)cc2c1OCc1ccc(OC(F)(F)F)cc1)C(=O)O [Example 259, (2R)-2-[[7-fluoro-1-[[4-(trifluoromethoxy)phenyl]methoxy]naphthalene-2-carbonyl]amino]-3,3-dimethyl-butanoic Acid]	1700	63.7	A (“A” refers to AUC @10 uM >6)
CC(C)(C)[C@H](NC(=O)c1ccc2cc(F)ccc2c1OCc1ccc(SC(F)(F)F)cc1)C(=O)O [Example 75, (S)-2-(6-fluoro-1-((4-((trifluoromethyl)thio)benzyl)oxy)-2-naphthamido)-3,3-dimethylbutanoic Acid]	700	94.2	B (“B” refers to AUC @10 uM between 4-6)
O=C(N[C@@H](Cc1ccccc1)C(=O)O)c1ccc2ccccc2c1OCc1ccccc1C(F)(F)F [Example 93, (1-((2-(trifluoromethyl)benzyl)oxy)-2-naphthoyl)-L-phenylalanine]		13.1	C (“C” refers to AUC @10 uM <4)

Other lines, results leading:

EC50 [1] [nM]	Emax [1] [%]	TECC24 AUC fold over DMSO @10 μM [2]	SMILES
200	248	A (“A” refers to AUC @10 uM >6)	Cc1cc2c(OCc3ccc(C(F)(F)F)cc3)c(C(=O)N[C@H](C(=O)O)C(C)(C)C)ccc2cc1F [Example 278, (S)-2-(6-fluoro-7-methyl-1-((4-(trifluoromethyl)benzyl)oxy)-2-naphthamido)-3,3-dimethylbutanoic Acid]
400	260	A (“A” refers to AUC @10 uM >6)	CCCC(C)(CC)[C@H](NC(=O)c1ccc2ccc(F)cc2c1OCc1ccc(C(F)(F)F)cc1)C(=O)O (stereo partly drawn) [Example 291, (2S)-3-ethyl-2-(7-fluoro-1-((4-(trifluoromethyl)benzyl)oxy)-2-naphthamido)-3-methylhexanoic Acid]
100	324	A (“A” refers to AUC @10 uM >6)	CCCC(C)(CC)[C@H](NC(=O)c1ccc2ccc(Cl)cc2c1OCc1ccc(C(F)(F)F)cc1)C(=O)O (stereo partly drawn) [Example 255, (2S)-2-[[7-chloro-1-[[4-(trifluoromethyl)phenyl]methoxy]naphthalene-2-carbonyl]amino]-3-ethyl-3-methyl-hexanoic Acid]
500	287	C (“C” refers to AUC @10 uM <4)	CC(C)(C)[C@H](NC(=O)c1ccc2ccccc2c1OCc1ccc(C(F)(F)F)c(F)c1)C(=O)O [Example 25, (S)-2-(1-((3-fluoro-4-(trifluoromethyl)benzyl)oxy)-2-naphthamido)-3,3-dimethylbutanoic Acid]
300	117	C (“C” refers to AUC @10 uM <4)	CC(C)(S[C@@H]1C[C@@H]2CC[C@H]1C2)[C@H](NC(=O)c1ccc2ccccc2c1OCc1ccc(SC(F)(F)F)cc1)C(=O)O [Example 174, (R)-3-(((1S,2R,4R)-bicyclo[2.2.1]heptan-2-yl)thio)-3-methyl-2-(1-((4-((trifluoromethyl)thio)benzyl)oxy)-2-naphthamido)butanoic Acid]
500	62.7	C (“C” refers to AUC @10 uM <4)	CC(C)(SC1CCCC1)[C@H](NC(=O)c1ccc2cc(F)ccc2c1OCc1ccc(SC(F)(F)F)cc1)C(=O)O [Example 172]
400	233	A (“A” refers to AUC @10 uM >6)	CCC1([C@H](NC(=O)c2ccc3ccc(F)cc3c2OCc2ccc(C(F)(F)F)cc2)C(=O)O)CCCC1 [Example 314, (S)-2-(1-ethylcyclopentyl)-2-(7-fluoro-1-((4-(trifluoromethyl)benzyl)oxy)-2-naphthamido)acetic Acid]
